Each molecule was assayed against T1, Recombinant human BRD4 containing dual bromodomains (BRD4-BD12 (1-477)) (Homo sapiens, UniProt O60885) (assay: BRD4 Alphascreen binding assay).
T1 construct: Recombinant human BRD4 containing dual bromodomains (BRD4-BD12 (1-477)); made in house; host or cells: E. coli BL21-CodonPlus (DE3), modified pET vector
Outline: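 AlphaScreen proximity between Ni-chelate-bound BRD4-BD12 (1-477) and streptavidin-captured H4 K5/K8/K12/K16-acetyl peptide measured after 1 h room-temperature compound incubation and 30 min with 7.5 μg/ml beads. Buffer: 50 mM HEPES pH 7.5, 50 mM NaCl, 0.01% BSA, 0.01% Triton X-100; data plate-normalized and four-parameter fit for IC50.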

`Cc1noc(C)c1-c1cnc2c(c1)c(-c1ccc(C(=O)O)cc1Cl)cn2C(c1ccccn1)C1CCCC1` (centres unmarked) [P-0027, 3-chloro-4-(1-(cyclopentyl(pyridin-2-yl)methyl)-5-(3,5-dimethylisoxazol-4-yl)-1H-pyrrolo[2,3-b]pyridin-3-yl)benzoic acid] and `Cc1cc(-c2cn(C(c3ccccn3)C3CCCC3)c3ncc(-c4c(C)noc4C)cc23)ccc1C(=O)O` (centres unmarked) [P-0028, 4-(1-(cyclopentyl(pyridin-2-yl)methyl)-5-(3,5-dimethylisoxazol-4-yl)-1H-pyrrolo[2,3-b]pyridin-3-yl)-2-methylbenzoic acid] fall in the same range of IC50: 1 to 8 µM for the first, 1 to 8 µM for the second.

Compared with `Cc1noc(C)c1-c1cnc2c(c1)c(-c1ccc(C(=O)O)c(C(F)(F)F)c1)cn2C(c1ccccn1)C1CCCC1` (centres unmarked) [P-0029, 4-(1-(cyclopentyl(pyridin-2-yl)methyl)-5-(3,5-dimethylisoxazol-4-yl)-1H-pyrrolo[2,3-b]pyridin-3-yl)-2-(trifluoromethyl)benzoic acid], `Cc1noc(C)c1-c1cnc2c(c1)c(-c1ccc(C(=O)O)c(O)c1)cn2C(c1ccccn1)C1CCCC1` (centres unmarked) [P-0030, 4-(1-(cyclopentyl(pyridin-2-yl)methyl)-5-(3,5-dimethylisoxazol-4-yl)-1H-pyrrolo[2,3-b]pyridin-3-yl)-2-hydroxybenzoic acid] is higher in IC50: 1 to 8 µM for the first, 8 to 1000 µM for the second.

`Cc1noc(C)c1-c1cnc2c(c1)c(-c1ccc(CC(=O)O)cc1)cn2C(c1ccccn1)C1CCCC1` (centres unmarked) [P-0031, 2-(4-(1-(cyclopentyl(pyridin-2-yl)methyl)-5-(3,5-dimethylisoxazol-4-yl)-1H-pyrrolo[2,3-b]pyridin-3-yl)phenyl)acetic acid] and `Cc1noc(C)c1-c1cnc2c(c1)c(-c1ccc(C(C)(C)C(=O)O)cc1)cn2C(c1ccccn1)C1CCCC1` (centres unmarked) [P-0032, 2-(4-(1-(cyclopentyl(pyridin-2-yl)methyl)-5-(3,5-dimethylisoxazol-4-yl)-1H-pyrrolo[2,3-b]pyridin-3-yl)phenyl)-2-methylpropanoic acid] fall in the same range of IC50: 1 to 8 µM for the first, 1 to 8 µM for the second.

`Cc1noc(C)c1-c1cnc2c(c1)c(-c1ccc(C3(C(=O)O)CC3)cc1)cn2C(c1ccccn1)C1CCCC1` (centres unmarked) [P-0033, 1-(4-(1-(cyclopentyl(pyridin-2-yl)methyl)-5-(3,5-dimethylisoxazol-4-yl)-1H-pyrrolo[2,3-b]pyridin-3-yl)phenyl)cyclopropane-1-carboxylic acid] and `Cc1noc(C)c1-c1cnc2c(c1)c(-c1ccc(C(F)(F)C(=O)O)cc1)cn2C(c1ccccn1)C1CCCC1` (centres unmarked) [P-0034, 2-(4-(1-(cyclopentyl(pyridin-2-yl)methyl)-5-(3,5-dimethylisoxazol-4-yl)-1H-pyrrolo[2,3-b]pyridin-3-yl)phenyl)-2,2-difluoroacetic acid] fall in the same range of IC50: 1 to 8 µM for the first, 1 to 8 µM for the second.

First: COc1ncccc1-n1cc(-c2ccc(C(=O)O)cc2OC(F)(F)F)c2cc(-c3c(C)noc3C)cnc21 [P-0316, 4-(5-(3,5-dimethylisoxazol-4-yl)-1-(2-methoxypyridin-3-yl)-1H-pyrrolo[2,3-b]pyridin-3-yl)-3-(trifluoromethoxy)benzoic acid]
Second: Cc1ncccc1-n1cc(-c2ccc(C(=O)O)cc2OC(F)(F)F)c2cc(-c3c(C)noc3C)cnc21 [P-0317, 4-(5-(3,5-dimethylisoxazol-4-yl)-1-(2-methylpyridin-3-yl)-1H-pyrrolo[2,3-b]pyridin-3-yl)-3-(trifluoromethoxy)benzoic acid]
The IC50 of the first is lower: 1 to 8 µM for the first, 8 to 1000 µM for the second.

First: Cc1noc(C)c1-c1cnc2c(c1)c(-c1ccc(C(=O)O)cc1OC(F)(F)F)cn2-c1cnn(C)c1 [P-0318, 4-(5-(3,5-dimethylisoxazol-4-yl)-1-(1-methyl-1H-pyrazol-4-yl)-1H-pyrrolo[2,3-b]pyridin-3-yl)-3-(trifluoromethoxy)benzoic acid]
Second: Cc1noc(C)c1-c1cnc2c(c1)c(-c1ccc(C(=O)O)cc1OC(F)(F)F)cn2-c1cncnc1 [P-0319, 4-(5-(3,5-dimethylisoxazol-4-yl)-1-(pyrimidin-5-yl)-1H-pyrrolo[2,3-b]pyridin-3-yl)-3-(trifluoromethoxy)benzoic acid]
The IC50 of the first is lower: 0.0001 to 1 µM for the first, 1 to 8 µM for the second.

`Cc1noc(C)c1-c1cnc2c(c1)c(-c1ccc(C(=O)O)cc1OC(F)(F)F)cn2-c1cnc(N)nc1` [P-0320, 4-(1-(2-aminopyrimidin-5-yl)-5-(3,5-dimethylisoxazol-4-yl)-1H-pyrrolo[2,3-b]pyridin-3-yl)-3-(trifluoromethoxy)benzoic acid] and `Cc1noc(C)c1-c1cnc2c(c1)c(-c1ccc(C(=O)O)cc1OC(F)(F)F)cn2-c1cnc(N(C)C)nc1` [P-0321] fall in the same range of IC50: 1 to 8 µM for the first, 1 to 8 µM for the second.

`Cc1noc(C)c1-c1cnc2c(c1)c(-c1ccc(C(=O)O)cc1OC(F)(F)F)cn2-c1ccc(C(=O)O)cc1` [P-0322, 4-(1-(4-carboxyphenyl)-5-(3,5-dimethylisoxazol-4-yl)-1H-pyrrolo[2,3-b]pyridin-3-yl)-3-(trifluoromethoxy)benzoic acid] and `Cc1noc(C)c1-c1cnc2c(c1)c(-c1ccc(C(=O)O)cc1OC(F)(F)F)cn2-c1ccc(C(N)=O)cc1` [P-0323, 4-(1-(4-carbamoylphenyl)-5-(3,5-dimethylisoxazol-4-yl)-1H-pyrrolo[2,3-b]pyridin-3-yl)-3-(trifluoromethoxy)benzoic acid] fall in the same range of IC50: 1 to 8 µM for the first, 1 to 8 µM for the second.

`COc1cc(C(=O)O)ncc1-c1cn(-c2ccncc2Cl)c2ncc(-c3c(C)noc3C)cc12` [P-0324, 5-(1-(3-chloropyridin-4-yl)-5-(3,5-dimethylisoxazol-4-yl)-1H-pyrrolo[2,3-b]pyridin-3-yl)-4-methoxypicolinic acid] and `CCOc1cc(C(=O)O)c(F)cc1-c1cn(-c2ccc(F)cc2F)c2ncc(-c3c(C)noc3C)cc12` [P-0330, 4-(1-(2,4-difluorophenyl)-5-(3,5-dimethylisoxazol-4-yl)-1H-pyrrolo[2,3-b]pyridin-3-yl)-5-ethoxy-2-fluorobenzoic acid] fall in the same range of IC50: 1 to 8 µM for the first, 1 to 8 µM for the second.

`Cc1noc(C)c1-c1cnc2c(c1)c(-c1ccc(C(=O)O)cc1OCC(F)F)cn2[C@H]1CCOC1` [P-0325, (S)-3-(2,2-difluoroethoxy)-4-(5-(3,5-dimethylisoxazol-4-yl)-1-(tetrahydrofuran-3-yl)-1H-pyrrolo[2,3-b]pyridin-3-yl)benzoic acid] and `Cc1noc(C)c1-c1cnc2c(c1)c(-c1ccc(C(=O)O)cc1OCC(F)F)cn2-c1cnc(N2CCC2)nc1` [P-0328, 4-(1-(2-(azetidin-1-yl)pyrimidin-5-yl)-5-(3,5-dimethylisoxazol-4-yl)-1H-pyrrolo[2,3-b]pyridin-3-yl)-3-(2,2-difluoroethoxy)benzoic acid] fall in the same range of IC50: 8 to 1000 µM for the first, 8 to 1000 µM for the second.

Compared with `CCn1cc(-n2cc(-c3ccc(C(=O)O)cc3OCC(F)F)c3cc(-c4c(C)noc4C)cnc32)c(C)n1` [P-0326, 3-(2,2-difluoroethoxy)-4-(5-(3,5-dimethylisoxazol-4-yl)-1-(1-ethyl-3-methyl-1H-pyrazol-4-yl)-1H-pyrrolo[2,3-b]pyridin-3-yl)benzoic acid], `Cc1noc(C)c1-c1cnc2c(c1)c(-c1c(F)cc(C(=O)O)cc1OCC(F)F)cn2-c1ccccc1` [P-0327, 3-(2,2-difluoroethoxy)-4-(5-(3,5-dimethylisoxazol-4-yl)-1-phenyl-1H-pyrrolo[2,3-b]pyridin-3-yl)-5-fluorobenzoic acid] is lower in IC50: 8 to 1000 µM for the first, 1 to 8 µM for the second.

`CCOc1cc(C(=O)O)nc(OCC)c1-c1cn(-c2ccc(F)cc2F)c2ncc(-c3c(C)noc3C)cc12` [P-0329, 5-(1-(2,4-difluorophenyl)-5-(3,5-dimethylisoxazol-4-yl)-1H-pyrrolo[2,3-b]pyridin-3-yl)-4,6-diethoxypicolinic acid] was tested, and the IC50 was 1 to 8 µM.

Source: patent US11446287B2, “Compounds and methods for EP300 or CBP modulation and indications therefor” (Opna Immuno-Oncology SA, priority 2019, dated 2022)
